In ChEMBL document CHEMBL4477199, “Design and synthesis of novel bicalutamide and enzalutamide derivatives as antiproliferative agents for the treatment of prostate cancer” (Eur J Med Chem, 2016):

Legend:
CWR22R [1] = test: Antiproliferative activity against human 22Rv1 cells after 96 hrs by propidium iodide staining based fluorescence 2D monolayer assay; format: functional, cell-based; conditions: 22Rv1, 96 h
DU-145 [2] = test: Antiproliferative activity against human DU145 cells after 96 hrs by propidium iodide staining based fluorescence 2D monolayer assay; format: functional, cell-based; conditions: DU-145, 96 h
LNCaP [3] = test: Antiproliferative activity against human LNCAP cells after 96 hrs by propidium iodide staining based fluorescence 2D monolayer assay; format: functional, cell-based
VCaP [4] = test: Antiproliferative activity against human VCaP cells after 96 hrs by propidium iodide staining based fluorescence 2D monolayer assay; format: functional, cell-based
LNCaP [5] = test: Antiproliferative activity against human LNCAP cells assessed as relative inhibition after 96 hrs by propidium iodide staining based fluorescence 2D monolayer assay; format: functional, cell-based
DU-145 [6] = test: Antiproliferative activity against human DU145 cells assessed as relative inhibition after 96 hrs by propidium iodide staining based fluorescence 2D monolayer assay; format: functional, cell-based; conditions: DU-145, 96 h
CWR22R [7] = test: Antiproliferative activity against human 22Rv1 cells assessed as relative inhibition after 96 hrs by propidium iodide staining based fluorescence 2D monolayer assay; format: functional, cell-based; conditions: 22Rv1, 96 h
VCaP [8] = test: Antiproliferative activity against human VCaP cells assessed as relative inhibition after 96 hrs by propidium iodide staining based fluorescence 2D monolayer assay; format: functional, cell-based
HepG2 [9] = test: Cytotoxicity against human HepG2 cells assessed as reduction in cell viability at 100 uM after 72 hrs by MTT assay relative to control; format: functional
in vitro = conditions: human
[10] = target: T1, Androgen receptor (Rattus norvegicus) (UniProt P15207); test: (§1) Antagonist activity at rat androgen receptor fused with DNA-binding domain of GAL4 expressed in AR-UAS-bla GripTite 293 cells assessed as inhibition of R1881-induced receptor activation preincubated for 30 mins followed by R1881 addition measured after 16 to 24 hrs by betalactamase reporter gene assay; format: cell-based
T1 sequence (whole entry): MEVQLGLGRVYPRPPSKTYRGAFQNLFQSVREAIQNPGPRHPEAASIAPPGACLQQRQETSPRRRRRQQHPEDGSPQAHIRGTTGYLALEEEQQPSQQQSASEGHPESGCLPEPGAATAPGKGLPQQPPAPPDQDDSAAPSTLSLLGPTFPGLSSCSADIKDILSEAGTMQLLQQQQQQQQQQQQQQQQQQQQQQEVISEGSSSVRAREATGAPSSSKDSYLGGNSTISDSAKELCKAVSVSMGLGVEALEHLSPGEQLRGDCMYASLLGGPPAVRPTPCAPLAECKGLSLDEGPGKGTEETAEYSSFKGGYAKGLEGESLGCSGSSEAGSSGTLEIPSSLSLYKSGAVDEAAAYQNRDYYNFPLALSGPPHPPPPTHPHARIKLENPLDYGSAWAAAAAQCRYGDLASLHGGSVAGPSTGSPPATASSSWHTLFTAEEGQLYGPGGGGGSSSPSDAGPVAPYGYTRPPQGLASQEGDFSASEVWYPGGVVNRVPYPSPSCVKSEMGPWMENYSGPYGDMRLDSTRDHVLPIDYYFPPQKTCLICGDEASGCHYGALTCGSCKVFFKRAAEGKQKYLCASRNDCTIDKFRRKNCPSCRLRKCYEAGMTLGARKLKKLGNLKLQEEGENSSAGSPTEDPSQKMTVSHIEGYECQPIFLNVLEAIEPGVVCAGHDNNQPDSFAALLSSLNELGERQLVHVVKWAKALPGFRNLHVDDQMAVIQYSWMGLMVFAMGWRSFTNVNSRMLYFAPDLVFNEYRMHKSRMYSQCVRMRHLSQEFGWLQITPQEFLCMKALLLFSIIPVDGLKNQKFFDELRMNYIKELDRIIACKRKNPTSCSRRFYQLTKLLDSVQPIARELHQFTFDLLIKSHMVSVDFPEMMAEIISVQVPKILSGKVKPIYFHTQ

Androgen receptor = target: T2, Androgen receptor (Rattus norvegicus, UniProt P15207); test: as §1; format: cell-based
T2 sequence (P15207 whole entry): T1 sequence (whole entry)

[11] = Half life in human liver microsomes at 3 uM preincubated with compound followed by NADPH addition by LC-MS/MS analysis
[12] = Apparent permeability from apical to basolateral side in human Caco2 cells at 10 uM incubated for 120 mins by LC-MS/MS analysis; conditions: Caco-2
[13] = Apparent permeability from basolateral to apical side in human Caco2 cells at 10 uM incubated for 120 mins by LC-MS/MS analysis; conditions: Caco-2
[14] = Efflux ratio of apparent permeability from basolateral to apical side over apical to basolateral side in human Caco2 cells at 10 uM incubated for 120 mins by LC-MS/MS analysis; conditions: Caco-2
HepG2 [15] = test: Cytotoxicity against human HepG2 cells assessed as reduction in cell viability after 72 hrs by MTT assay; format: functional, cell-based; conditions: HepG2, 72 h; for minimal effective concentration: read-out: MEC
[16] = 96 h
Description: Solubility in RPMI1640 culture medium at <30 uM incubated for 4 days by microscopic analysis

[17] = 33000 µM
Description: Solubility in 100% DMSO at 33 mM at -20 degC

CWR22R [18] = test: Potency index, ratio of bicalutamide IC50 to compound IC50 for human 22Rv1 cells; format: functional
DU-145 [19] = test: Potency index, ratio of bicalutamide IC50 to compound IC50 for human DU145 cells; format: functional
LNCaP [20] = test: Potency index, ratio of bicalutamide IC50 to compound IC50 for human LNCAP cells; format: functional
VCaP [21] = test: Potency index, ratio of bicalutamide IC50 to compound IC50 for human VCaP cells; format: functional
[22] = Metabolic stability in human liver microsomes at 3 uM preincubated with compound followed by NADPH addition measured after 5 to 45 mins by LC-MS/MS analysis; format: ADME, Microsome

| Structure (SMILES) | IC50 (CWR22R [1]) | IC50 (DU-145 [2]) | IC50 (LNCaP [3]) | IC50 (VCaP [4]) | cell viability reduction (HepG2 [9]) | microsomal CLint at 3 µM (in vitro; liver microsomes) | inhibition [10] | IC50 (Androgen receptor) | Papp A→B at 2 h, 10 µM [12] | Papp B→A at 2 h, 10 µM [13] | efflux ratio at 2 h, 10 µM [14] | AC50 (HepG2 [15]) | minimal effective concentration (HepG2 [15]) | solubility [16] | solubility [17] | Ratio IC50 (CWR22R [18]) | Ratio IC50 (DU-145 [19]) | Ratio IC50 (LNCaP [20]) | Ratio IC50 (VCaP [21]) | half-life at 3 µM ([11]; liver microsomes) | also measured |
| --- | --- | --- | --- | --- | --- | --- | --- | --- | --- | --- | --- | --- | --- | --- | --- | --- | --- | --- | --- | --- | --- |
| C[C@](O)(CS(=O)(=O)c1ccc(F)cc1)C(=O)Nc1ccc(C#N)c(C(F)(F)F)c1 [(R)-BICALUTAMIDE] | 46.2 to 46.3 µM | 45.4 µM | 45.2 µM | 51.6 µM | 77% | 6.48 µL/min/mg |  |  |  |  |  |  |  |  |  |  |  |  |  |  | IC70 (CWR22R [1]): 58.7 µM; IC70 (DU-145 [2]): 56.6 µM; IC70 (LNCaP [3]): 57.7 µM; IC70 (VCaP [4]): 83.4 µM; IC50 (LNCaP [5]): 47 µM; IC70 (LNCaP [5]): 59.3 µM; IC50 (DU-145 [6]): 41.2 µM; IC70 (DU-145 [6]): 52.6 µM; IC50 (CWR22R [7]): 44.6 µM; IC70 (CWR22R [7]): 57.1 µM; IC50 (VCaP [8]): 39.8 µM; IC70 (VCaP [8]): 52.1 µM |
| CC(O)(CSc1ccccc1C(F)(F)F)C(=O)Nc1ccc([N+](=O)[O-])c(C(F)(F)F)c1 (stereo not drawn) | 4.6 µM | 7.57 µM | 4.78 µM | 4.45 µM | 98% |  | Dose-dependent effect | 280 nM | 3.44 ×10⁻⁶ cm/s | 2.9 ×10⁻⁶ cm/s | 0.843 | 2.73 µM | 1.71 µM | Soluble | Soluble |  |  |  |  |  | half-life at 3 µM ([11]; microsomes): 3.39 min; microsomal CLint at 3 µM (in vitro; microsomes): 409 µL/min/mg |
| CC(O)(CS(=O)(=O)c1ccc(C(F)(F)F)cc1)C(=O)Nc1ccc([N+](=O)[O-])c(C(F)(F)F)c1 (stereo not drawn) | 18.7 µM | 24.7 µM | 17.9 µM | 31.5 µM |  |  |  |  |  |  |  |  |  | Soluble | Soluble | <=2 | <=2 | <=2 | <=2 |  |  |
| CC(O)(CS(=O)(=O)c1ccccc1C(F)(F)F)C(=O)Nc1ccc([N+](=O)[O-])c(C(F)(F)F)c1 (stereo not drawn) | 18.6 µM | 37.5 µM | 25.7 µM | 27.6 µM |  |  | Dose-dependent effect | 811 nM | 13.3 ×10⁻⁶ cm/s | 17.2 ×10⁻⁶ cm/s | 1.29 | 32.6 µM | 22.7 µM | Soluble | Soluble |  |  |  |  |  | Stability [22]: Stable |
| CC(O)(CS(=O)(=O)c1cccc(C(F)(F)F)c1)C(=O)Nc1ccc([N+](=O)[O-])c(C(F)(F)F)c1 (stereo not drawn) | 16.1 µM | 31.6 µM | 16.2 µM | 30.8 µM |  |  | Dose-dependent effect | 1070 nM |  |  |  |  |  | Soluble | Soluble | <=2 | <=2 | <=2 | <=2 |  |  |
| CC(O)(COc1ccc(C#N)cc1C(F)(F)F)C(=O)Nc1ccc([N+](=O)[O-])c(C(F)(F)F)c1 (stereo not drawn) | 5.55 µM | 7.65 µM | 5.69 µM | 8.38 µM | 98% | 2.59 µL/min/mg | Dose-dependent effect | 72.2 nM |  |  |  | 20.2 µM | 10.6 µM |  |  |  |  |  |  | 534 min |  |
| CC(O)(CSc1cccc(C(F)(F)F)c1)C(=O)Nc1ccc([N+](=O)[O-])c(C(F)(F)F)c1 (stereo not drawn) | 5.07 µM | 8.73 µM | 6.44 µM | 8.64 µM |  | 202 µL/min/mg | Dose-dependent effect | 625 nM | 5 ×10⁻⁶ cm/s | 4.27 ×10⁻⁶ cm/s | 0.853 | 26.1 µM | 13.2 µM | Soluble | Soluble |  |  |  |  | 6.87 min |  |
| C[C@](O)(CSc1ccc(C(F)(F)F)cc1)C(=O)Nc1ccc(C#N)c(C(F)(F)F)c1 | 9.75 µM | 17.2 µM | 14.5 µM | 9.28 µM |  | 248 µL/min/mg | Dose-dependent effect | 2170 nM | 5.8 ×10⁻⁶ cm/s | 4.74 ×10⁻⁶ cm/s | 0.817 | 61.2 µM | 49.6 µM | Soluble | Soluble |  |  |  |  | 5.6 min |  |
| CC(O)(COc1ccc(C(F)(F)F)cc1)C(=O)Nc1ccc(C#N)c(C(F)(F)F)c1 (stereo not drawn) | 6.91 µM | 16.3 µM | 6.45 µM | 9.65 µM |  |  |  |  | 5.09 ×10⁻⁶ cm/s | 4.8 ×10⁻⁶ cm/s | 0.943 | 23.9 µM | 11.3 µM | Soluble | Soluble |  |  |  |  |  | Stability [22]: Stable |
| CC(O)(CS(=O)(=O)c1ccc(C(F)(F)F)cc1)C(=O)Nc1ccc(C#N)c(C(F)(F)F)c1 (stereo not drawn) | 21.5 µM | 32.8 µM | 20.1 µM | 29.1 µM |  |  |  |  |  |  |  |  |  | Soluble | Soluble | 2 | 2 | 2 | 2 |  |  |
